1 compound from US20140357706A1, “Stearate Compounds” (THE UAB RESEARCH FOUNDATION, priority 2011, published 2014) can be followed below.

One assay relates to caspase-3. The assay is described as follows: Caspase-3 activity assay in 3T3L1 preadipocytes. The assay is classed as cell-based, mouse. The note with it: 48 hours treatment. Here is the method: 50 μM of stearate, oleate or linoleate was used to treat 3T3L1 cells as this concentration is centered within the normal range for non-esterified stearate in the plasma of humans. Stearate, oleate, or linoleate was loaded onto fatty acid free BSA according to the method reported by Spector and Hoak (Spector and Hoak, 1969). Briefly, stearate (0.5 g) was dissolved in chloroform (100 mL) and mixed well with 10 g diatomaceous earth in a 1 liter flask. The mixture was stirred and dried under nitrogen until powder. Fatty acid free BSA (1 g) was dissolved in 100 mL with DMEM without phenol red and mixed with 3 g of the stearate/diatomaceous earth mixture and stirred for 30 minutes. The stearate/BSA solution was filtered through a 0.45 μm filter, and adjusted to pH 7.4. The concentration of stearate in the solution was detected by use of a NEFA C kit. Oleic and linoleate were loaded in the same way. All experimental data on 3T3L1 cells were confirmed using fatty acid free BSA control solutions that were put through the same preparatory procedure described except for the fact that no fatty acid was added. Before the treatment with fatty acid, 3T3L1 preadipocytes were grown to 100%, and were starved in 2% FBS medium for 24 hours.
Caspase-3 activity was measured using the EnzCheck Capase-3 Activity Kit #1 according to the manufacturer's instructions (Molecular Probes Inc. Eugene, Oreg.).

In assay [1] the test system is p21^CIP1/WAF1 and p27^KIP1 mRNA. The assay is described as follows: Quantitative real-time RT-PCR for p21CIP1/WAF1 and p27KIP1 in Hs578T cells. In kind it is cell-based, human. The settings on record: normalized to 18S rRNA; vs control, P<0.05. Here is the method: Total RNA was extracted and purified with TRIZOL Reagent (GIBCO Invitrogen, Carlsbad, Calif.). The first-strand complementary DNA (cDNA) synthesis was achieved using a commercially available kit (New England BioLabs, Beverly, Mass.) according to the protocol from the manufacturer. Briefly, 1 μg of total RNA was reverse-transcribed using M-MuLV reverse transcriptase (25 U) and dT23VN primer (5 μM) in a final volume of 25 μl.
Quantitative real-time reverse-transcription polymerase chain reaction (RT-PCR) cDNA samples were diluted to appropriate concentrations and used for a real-time RT-PCR assay in a volume of 25 μl, containing 2 μl DNA template, 12.5 μl SYBR® Green PCR Master Mix (Applied Biosystems, Foster City, Calif.) and 0.4 μM each specific primer. The gene expression of p21^CIP1/WAF1 and p27^KIP1 were determined by real-time quantitative RT-PCR and the house-keeping gene 18S ribosomal RNA (rRNA) was used as an internal control to normalize the variable RNA loading in each sample. […] The fluorescence intensity corresponding to the CT was used to quantitate the target cDNA in the mixture of samples with […] dilutions, employing the standard curve for each target gene. Sequence Detector Software (Applied Biosystems) was used to extract the data of the quantitative real-time RT-PCR. […]
In general terms: In qPCR the cycle at which signal appears reflects the starting amount.

Assay [2] relates to Hs578T human breast cancer cells. The assay is described as follows: Flow cytometry cell cycle analysis. The assay is classed as cell-based. The note with it: 50 μM stearate. Here is the method:
Hs578T human breast cancer cells (ATCC, HTB-126) were maintained according to the manufacturer's recommendations, in Dulbecco's modified Eagle's medium containing 10% fetal bovine serum, […] insulin and penicillin/streptomycin.
The concentration of stearate used to treat the Hs578T cells was 50 μM. When EGF was used, the concentration was 1 nM EGF. Before the treatment with stearate or EGF, cells were first starved for 24-48 hours. Stearate was loaded onto fatty acid-free bovine serum albumin (BSA) according to the method reported by Spector et al. (13); briefly, stearate (0.5 g) was dissolved in chloroform (100 ml) and mixed well with 10 g diatomaceous earth in a 1 liter flask. The mixture was stirred and dried under nitrogen until powder. BSA is a physiological carrier of fatty acids and was used to avoid the introduction of organic solvents to solutions coming into contact with cells. […] The concentration of stearate in the solution was detected with the NEFA C Kit from Wako Chemicals GmbH (Neuss, Germany). […]
To analyze cellular DNA content, confluent Hs578t cells were harvested, fixed in ice-cold 70% ethanol for 30 min and then resuspended in citrate buffer (4 mM sodium citrate) containing 50 μg/ml of propidium iodide and 100 μg/ml of RNase. […] Data were analyzed using the ModFit LT workshop program (BD Immunocytometry System, San Jose, Calif.).

SMILES strings stand for the structures.

Consider `CCCCCCCCCCCCCCCCCC(=O)O` [stearate, Stearic acid], for which, in the assay with caspase-3, the Caspase-3 activity entry is “increased significantly”. In assay [1], the “p21^CIP1/WAF1 mRNA expression” value is given as “increased”. Further, the “Cells in the S phase” value in assay [2] is “reduced”. Also, in assay [2] (also in complete media and with EGF), the “Number of cells in G0/G1 and G2/M” value is “increased”.
